Reference: ChEMBL document CHEMBL4038272, “Synthesis and biological evaluation of novel podophyllotoxin-NSAIDs conjugates as multifunctional anti-MDR agents against resistant human hepatocellular carcinoma Bel-7402/5-FU cells” (Eur J Med Chem, 2017)
Calls of active or inactive are those of the source. The calls are words filed in the database; no cut-off is given here.

Key:
Bel7402/5-FU [1] = assay: Induction of microtubule disruption in human Bel7402/5-FU cells at 0.05 uM after 24 to 48 hrs by DAPI staining based immunofluorescence microscopic method; format: functional, cell-based
Bel7402/5-FU [2] = assay: Induction of apoptosis in human Bel7402/5-FU cells assessed as morphological changes at 0.05 uM after 24 hrs by Hoechst 33342 staining based fluorescent microscopic method; format: functional, cell-based
Bel7402/5-FU [3] = assay: Cell cycle arrest in human Bel7402/5-FU cells assessed as accumulation at G2 phase at 0.05 uM after 48 hrs by propidium iodide staining based flow cytometry (reference value: 35.16%); format: functional
Bel7402/5-FU [4] = assay: Effect on COX2 expression in human Bel7402/5-FU cells assessed as ratio of COX2 to beta-actin level at 0.05 uM after 48 hrs by Western blot analysis (reference value: 0.36); format: functional
Bel7402/5-FU [5] = assay: Induction of apoptosis in human Bel7402/5-FU cells assessed as necrotic cells at 0.05 uM after 48 hrs by Annexin V-APC/7-AAD staining based flow cytometry (reference value: 0.58%); format: functional
Bel7402/5-FU [6] = assay: Induction of apoptosis in human Bel7402/5-FU cells assessed as ratio of cleaved PARP to beta-actin level at 0.05 uM after 48 hrs by Western blot analysis (reference value: 0.2); format: functional
Bel7402/5-FU [7] = assay: Effect on MRP1 expression in human Bel7402/5-FU cells assessed as ratio of MRP1 to beta-actin level at 0.05 uM after 48 hrs by Western blot analysis (reference value: 0.58); format: functional
[8] = molecular target: Signal transducer and activator of transcription 3 (Homo sapiens) (UniProt P40763); assay: Effect on STAT3 phosphorylation in human Bel7402/5-FU cells assessed as ratio of phosphorylated STAT3 to beta-actin level at 0.05 uM after 48 hrs by Western blot analysis (reference value: 0.3); format: cell-based
Bel7402/5-FU [9] = assay: Reduction in microtubule density in human Bel7402/5-FU cells at 0.05 uM after 24 to 48 hrs by DAPI staining based immunofluorescence microscopic method; format: functional, cell-based
Bel7402/5-FU [10] = assay: Induction of apoptosis in human Bel7402/5-FU cells assessed as ratio of cleaved caspase-3 to beta-actin level at 0.05 uM after 48 hrs by Western blot analysis (reference value: 0.19); format: functional
Bel-7402 = assay: Antiproliferative activity against human Bel7402 cells after 72 hrs by CCK-8 assay; format: functional, cell-based; conditions: Bel-7402, 72 h
Bel7402/5-FU [11] = assay: Cell cycle arrest in human Bel7402/5-FU cells assessed as accumulation at S phase at 0.05 uM after 48 hrs by propidium iodide staining based flow cytometry (reference value: 12.62%); format: functional
Bel7402/5-FU [12] = assay: Effect on iNOS expression in human Bel7402/5-FU cells assessed as ratio of iNOS to beta-actin level at 0.05 uM after 48 hrs by Western blot analysis (reference value: 0.13); format: functional
Bel7402/5-FU [13] = assay: Antiproliferative activity against human Bel7402/5-FU cells after 72 hrs by CCK-8 assay; format: functional, cell-based
L02 = assay: Antiproliferative activity against human LO2 cells after 72 hrs by CCK-8 assay; format: cell-based; conditions: L02, 72 h
Bel7402/5-FU [14] = assay: Effect on VEGFR2 expression in human Bel7402/5-FU cells assessed as ratio of VEGFR2 to beta-actin level at 0.05 uM after 48 hrs by Western blot analysis (reference value: 0.25); format: functional
Bel7402/5-FU [15] = assay: Effect on COX1 expression in human Bel7402/5-FU cells assessed as ratio of COX1 to beta-actin level at 0.05 uM after 48 hrs by Western blot analysis (reference value: 0.48); format: functional
Bel7402/5-FU [16] = assay: Effect on CDK2 expression in human Bel7402/5-FU cells assessed as ratio of CDK2 to beta-actin level at 0.05 uM after 48 hrs by Western blot analysis (reference value: 0.43); format: functional
Bel7402/5-FU [17] = assay: Cell cycle arrest in human Bel7402/5-FU cells assessed as accumulation at G1 phase at 0.05 uM after 48 hrs by propidium iodide staining based flow cytometry (reference value: 52.21%); format: functional
Bel7402/5-FU [18] = assay: Antimigratory activity in human Bel7402/5-FU cells at 0.05 uM after 24 hrs by wound healing assay; format: functional, cell-based
Bel7402/5-FU [19] = assay: Effect on MMP2 expression in human Bel7402/5-FU cells assessed as ratio of MMP2 to beta-actin level at 0.05 uM after 48 hrs by Western blot analysis (reference value: 0.3); format: functional
Bel7402/5-FU [20] = assay: Effect on cyclinA expression in human Bel7402/5-FU cells assessed as ratio of cyclinA to beta-actin level at 0.05 uM after 48 hrs by Western blot analysis (reference value: 0.39); format: functional
Bel7402/5-FU [21] = assay: Effect on E-cadherin expression in human Bel7402/5-FU cells assessed as ratio of E-cadherin to beta-actin level at 0.05 uM after 48 hrs by Western blot analysis (reference value: 0.2); format: functional
Bel7402/5-FU [22] = assay: Induction of apoptosis in human Bel7402/5-FU cells assessed as late apoptotic cells at 0.05 uM after 48 hrs by Annexin V-APC/7-AAD staining based flow cytometry (reference value: 3%); format: functional
Bel7402/5-FU [23] = assay: Induction of apoptosis in human Bel7402/5-FU cells assessed as condensed nuclei at 0.05 uM after 24 hrs by Hoechst 33342 staining based fluorescent microscopic method; format: functional, cell-based
Bel7402/5-FU [24] = assay: Effect on cyclinB1 expression in human Bel7402/5-FU cells assessed as ratio of cyclinB1 to beta-actin level at 0.05 uM after 48 hrs by Western blot analysis (reference value: 0.53); format: functional
Bel7402/5-FU [25] = assay: Effect on P-gp expression in human Bel7402/5-FU cells assessed as ratio of P-gp to beta-actin level at 0.05 uM after 48 hrs by Western blot analysis (reference value: 0.59); format: functional
Bel7402/5-FU [26] = assay: Induction of apoptosis in human Bel7402/5-FU cells assessed as ratio of cleaved caspase-8 to beta-actin level at 0.05 uM after 48 hrs by Western blot analysis (reference value: 0.17); format: functional
Bel7402/5-FU [27] = assay: Induction of apoptosis in human Bel7402/5-FU cells at 0.05 uM after 24 hrs by Hoechst 33342 staining based fluorescent microscopic method; format: functional, cell-based
Bel7402/5-FU [28] = assay: Induction of apoptosis in human Bel7402/5-FU cells assessed as live cells at 0.05 uM after 48 hrs by Annexin V-APC/7-AAD staining based flow cytometry (reference value: 91.08%); format: functional
Bel7402/5-FU [29] = assay: Effect on CDK1 expression in human Bel7402/5-FU cells assessed as ratio of CDK1 to beta-actin level at 0.05 uM after 48 hrs by Western blot analysis (reference value: 0.33); format: functional
Bel7402/5-FU [30] = assay: Induction of apoptosis in human Bel7402/5-FU cells assessed as reduction in cell number at 0.05 uM after 24 hrs by Hoechst 33342 staining based fluorescent microscopic method; format: functional
Bel7402/5-FU [31] = assay: Induction of apoptosis in human Bel7402/5-FU cells assessed as ratio of cleaved caspase-9 to beta-actin level at 0.05 uM after 48 hrs by Western blot analysis (reference value: 0.17); format: functional
[32] = molecular target: RAC-alpha serine/threonine-protein kinase (Homo sapiens) (UniProt P31749); assay: Effect on AKT phosphorylation in human Bel7402/5-FU cells assessed as ratio of phosphorylated AKT to beta-actin level at 0.05 uM after 48 hrs by Western blot analysis (reference value: 0.39); format: cell-based
[33] = Resistant factor, ratio of IC50 for human Bel7402/5-FU cells to IC50 for human Bel7402 cells; format: functional
Bel7402/5-FU [34] = assay: Induction of apoptosis in human Bel7402/5-FU cells assessed as early apoptotic cells at 0.05 uM after 48 hrs by Annexin V-APC/7-AAD staining based flow cytometry (reference value: 5.24%); format: functional
[35] = molecular target: Mitogen-activated protein kinase; ERK1/ERK2 (Homo sapiens) (UniProt P27361+P28482); assay: Effect on ERK1/2 phosphorylation in human Bel7402/5-FU cells assessed as ratio of phosphorylated ERK1/2 to beta-actin level at 0.05 uM after 48 hrs by Western blot analysis (reference value: 0.59); format: cell-based
Mitogen-activated protein kinase; ERK1/ERK2 (Homo sapiens), sequence (P27361 whole entry, looked up): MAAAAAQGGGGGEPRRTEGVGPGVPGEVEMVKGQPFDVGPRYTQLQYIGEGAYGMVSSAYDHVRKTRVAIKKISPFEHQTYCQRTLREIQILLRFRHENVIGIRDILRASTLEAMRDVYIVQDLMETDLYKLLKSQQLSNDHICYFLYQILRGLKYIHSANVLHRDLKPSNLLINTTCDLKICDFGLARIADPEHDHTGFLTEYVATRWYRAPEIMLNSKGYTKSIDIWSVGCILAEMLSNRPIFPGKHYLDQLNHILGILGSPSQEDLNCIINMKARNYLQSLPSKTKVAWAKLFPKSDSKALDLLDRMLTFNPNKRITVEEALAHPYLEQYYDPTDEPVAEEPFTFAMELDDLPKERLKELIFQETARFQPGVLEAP
Mitogen-activated protein kinase; ERK1/ERK2 (Homo sapiens), sequence (P28482 whole entry, looked up): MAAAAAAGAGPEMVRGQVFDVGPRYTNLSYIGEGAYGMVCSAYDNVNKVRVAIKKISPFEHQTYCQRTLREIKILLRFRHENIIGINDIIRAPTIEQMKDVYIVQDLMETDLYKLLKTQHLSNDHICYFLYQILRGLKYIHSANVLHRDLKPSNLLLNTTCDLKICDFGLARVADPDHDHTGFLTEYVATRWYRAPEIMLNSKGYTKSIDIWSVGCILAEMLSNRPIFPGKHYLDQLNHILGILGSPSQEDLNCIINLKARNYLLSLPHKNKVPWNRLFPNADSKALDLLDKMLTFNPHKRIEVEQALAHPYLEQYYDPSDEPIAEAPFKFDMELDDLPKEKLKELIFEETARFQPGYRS

RAC-alpha serine/threonine-protein kinase (Homo sapiens), sequence (P31749 whole entry): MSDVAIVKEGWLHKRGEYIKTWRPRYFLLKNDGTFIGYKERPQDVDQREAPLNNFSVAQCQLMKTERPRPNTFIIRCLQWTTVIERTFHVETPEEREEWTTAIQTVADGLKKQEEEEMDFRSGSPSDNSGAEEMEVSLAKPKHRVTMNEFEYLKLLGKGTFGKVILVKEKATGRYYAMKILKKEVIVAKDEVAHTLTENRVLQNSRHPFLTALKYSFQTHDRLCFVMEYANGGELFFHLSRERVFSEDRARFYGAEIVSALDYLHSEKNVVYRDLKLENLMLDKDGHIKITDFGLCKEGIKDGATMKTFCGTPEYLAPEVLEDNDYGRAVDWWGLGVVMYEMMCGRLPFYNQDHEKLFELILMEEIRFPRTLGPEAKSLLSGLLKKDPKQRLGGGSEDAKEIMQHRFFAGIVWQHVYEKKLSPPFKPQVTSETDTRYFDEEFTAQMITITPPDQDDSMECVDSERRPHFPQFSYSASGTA
Signal transducer and activator of transcription 3 (Homo sapiens), sequence (P40763 whole entry): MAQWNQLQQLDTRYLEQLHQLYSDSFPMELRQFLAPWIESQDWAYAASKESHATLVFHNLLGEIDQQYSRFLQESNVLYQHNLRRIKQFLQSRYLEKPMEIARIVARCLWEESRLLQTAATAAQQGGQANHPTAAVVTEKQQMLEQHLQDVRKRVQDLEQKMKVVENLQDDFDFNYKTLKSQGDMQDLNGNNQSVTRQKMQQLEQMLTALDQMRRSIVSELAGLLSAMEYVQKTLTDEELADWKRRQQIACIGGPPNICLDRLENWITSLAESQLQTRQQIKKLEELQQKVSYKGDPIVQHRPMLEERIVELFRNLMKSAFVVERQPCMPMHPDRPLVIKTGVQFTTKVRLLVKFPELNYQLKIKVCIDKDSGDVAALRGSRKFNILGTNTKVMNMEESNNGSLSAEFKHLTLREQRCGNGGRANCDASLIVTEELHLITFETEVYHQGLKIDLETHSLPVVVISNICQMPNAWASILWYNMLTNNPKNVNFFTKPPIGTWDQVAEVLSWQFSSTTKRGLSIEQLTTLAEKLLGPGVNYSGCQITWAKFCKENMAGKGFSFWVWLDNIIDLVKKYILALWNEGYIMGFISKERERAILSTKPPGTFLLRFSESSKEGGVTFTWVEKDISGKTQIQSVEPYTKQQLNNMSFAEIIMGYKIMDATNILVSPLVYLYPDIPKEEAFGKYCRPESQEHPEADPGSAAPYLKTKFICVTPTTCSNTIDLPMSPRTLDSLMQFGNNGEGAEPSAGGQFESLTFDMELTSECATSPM

COc1cc([C@@H]2c3cc4c(cc3[C@H](O)[C@H]3COC(=O)[C@H]23)OCO4)cc(OC)c1OC [PODOFILOX]
Activity (Bel7402/5-FU [1]): Active
Activity (Bel7402/5-FU [2]): Active
Activity (Bel7402/5-FU [3]): 73.62%
Ratio (Bel7402/5-FU [4]): 0.39
Activity (Bel7402/5-FU [5]): 4.65%
Ratio (Bel7402/5-FU [6]): 0.38
Ratio (Bel7402/5-FU [7]): 0.52
Ratio [8]: 0.41
Activity (Bel7402/5-FU [9]): Active
Ratio (Bel7402/5-FU [10]): 0.27
IC50 (Bel-7402): 52 nM
Activity (Bel7402/5-FU [11]): 9.1%
Ratio (Bel7402/5-FU [12]): 0.18
IC50 (Bel7402/5-FU [13]): 44 nM
IC50 (L02): 22 nM
Ratio (Bel7402/5-FU [14]): 0.22
Ratio (Bel7402/5-FU [15]): 0.43
Ratio (Bel7402/5-FU [16]): 0.29
Activity (Bel7402/5-FU [17]): 17.28%
Activity (Bel7402/5-FU [18]): Active
Ratio (Bel7402/5-FU [19]): 0.13
Ratio (Bel7402/5-FU [20]): 0.27
Ratio (Bel7402/5-FU [21]): 0.28
Activity (Bel7402/5-FU [22]): 23.17%
Activity (Bel7402/5-FU [23]): Active
Ratio (Bel7402/5-FU [24]): 0.41
Ratio (Bel7402/5-FU [25]): 0.49
Ratio (Bel7402/5-FU [26]): 0.26
Activity (Bel7402/5-FU [27]): Active
Activity (Bel7402/5-FU [28]): 63.7%
Ratio (Bel7402/5-FU [29]): 0.33
Activity (Bel7402/5-FU [30]): Active
Ratio (Bel7402/5-FU [31]): 0.26
Ratio [32]: 0.35
Ratio IC50 [33]: 0.84
Activity (Bel7402/5-FU [34]): 8.48%
Ratio [35]: 0.38
